Results taken from patent US20100105666A1, “TRIAZABENZO (A)NAPHTHO(2,1,8-CDE) AZULENE COMPOUNDS” (priority 2007, published 2010).

Experiments:
[1] = system: tyrosine hydroxylase (TH) protein in the locus coeruleus (LC); experiment: Induction of tyrosine hydroxylase in the locus coeruleus after a single i.p. injection; type: in vivo; conditions: three days after injection, Balb/C mouse; for amount of TH in LC section 1, % relative to the mean value of the control group: LC section 1 (anterior-to-posterior), i.p. 20 mg/kg; for amount of TH in LC section 2, % relative to the mean value of the control group: LC section 2, i.p. 20 mg/kg; for amount of TH in LC section 3, % relative to the mean value of the control group: LC section 3, i.p. 20 mg/kg; for amount of TH in LC section 4, % relative to the mean value of the control group: LC section 4, i.p. 20 mg/kg; for amount of TH in LC section 5, % relative to the mean value of the control group: LC section 5, i.p. 20 mg/kg; for amount of TH in LC section 6, % relative to the mean value of the control group: LC section 6, i.p. 20 mg/kg; for amount of TH in LC section 7, % relative to the mean value of the control group: LC section 7, i.p. 20 mg/kg; for amount of TH in LC section 8, % relative to the mean value of the control group: LC section 8, i.p. 20 mg/kg
Description: An investigation is made, among the compounds, for the capability of bringing about an increase in the tyrosine hydroxylase (TH) protein in the locus coeruleus (LC) of the brain of the Balb/C mouse.
The animals used are male mice of the pure Balb/C strain (Charles River Laboratories) aged 7 to 8 weeks at the time of treatment.
The mice are given a single injection, by the intraperitoneal route, of the compound under test, dissolved in 0.04M HCl solution (corresponding control: […]), if the compound is sufficiently soluble, or in olive oil 90%/DMSO 10% (corresponding control: olive oil 90%/DMSO 10%) for compounds that are insoluble in an aqueous medium.
Three days after the injection of each compound, all the animals are sacrificed by decapitation. The extracted brains are then frozen in liquid nitrogen and stored at −80° C.
Coronal sections 8 microns thick are then taken along the posterior-anterior axis of the LC and fixed. The sections are transferred onto Immobilon-P membranes. The TH is measured by immunodetection and image analysis.

[2] = target: 5HT receptors (type 5HT2A) (Homo sapiens, UniProt P28223); experiment: Affinity for receptors, displacement of labelled specific ligand: 5HT2A; type: binding
Description: The receptor affinity was accordingly studied for 28 conventional receptors.

[3] = compound 10^−7M, NADPH, 0-60 minutes; for % metabolic stability predicted using hepatic microsomes, Human: human hepatic microsomes 0.33 mg of prot/ml; for % metabolic stability predicted using hepatic microsomes, Mouse: mouse hepatic microsomes 0.33 mg of prot/ml; for % metabolic stability predicted using hepatic microsomes, Rat: rat hepatic microsomes 0.33 mg of prot/ml
Procedure: The predicted metabolic stability is tested by incubation of the compounds at a concentration of 10^−7M in the presence of mouse, rat or human hepatic microsomes (0.33 mg of prot/ml). After addition of NADPH (nicotinamide adenine dinucleotide phosphate, reduced form), samples are taken at 0, 5, 15, 30 and 60 minutes. The enzymatic reaction is stopped using methanol (V/V). The protein is precipitated by centrifugation and the supernatant is analysed by LC-MS-MS.

Chain of 5HT receptors (type 5HT2A) (P28223 whole entry): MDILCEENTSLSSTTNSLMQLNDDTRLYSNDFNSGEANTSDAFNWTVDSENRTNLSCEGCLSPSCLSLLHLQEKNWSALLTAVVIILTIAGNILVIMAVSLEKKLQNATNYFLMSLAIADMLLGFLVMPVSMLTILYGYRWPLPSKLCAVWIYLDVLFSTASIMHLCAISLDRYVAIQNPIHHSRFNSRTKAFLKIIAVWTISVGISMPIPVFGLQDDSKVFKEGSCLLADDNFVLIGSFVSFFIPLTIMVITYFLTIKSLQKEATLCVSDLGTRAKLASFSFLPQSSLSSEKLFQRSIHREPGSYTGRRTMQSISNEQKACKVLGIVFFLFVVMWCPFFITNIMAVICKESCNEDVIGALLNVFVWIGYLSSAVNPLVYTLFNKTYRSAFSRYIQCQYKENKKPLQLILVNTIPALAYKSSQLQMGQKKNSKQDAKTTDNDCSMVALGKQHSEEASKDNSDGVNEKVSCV

Row | melting point | Compound | amount of TH in LC section 1, % relative to the mean value of the control group [1] | amount of TH in LC section 2, % relative to the mean value of the control group [1] | amount of TH in LC section 3, % relative to the mean value of the control group [1] | amount of TH in LC section 4, % relative to the mean value of the control group [1] | amount of TH in LC section 5, % relative to the mean value of the control group [1] | amount of TH in LC section 6, % relative to the mean value of the control group [1] | amount of TH in LC section 7, % relative to the mean value of the control group [1] | amount of TH in LC section 8, % relative to the mean value of the control group [1] | % inhibition 5HT2A ([2]; concentration 10^−5 M) | % inhibition 5HT2A ([2]; concentration 10^−7 M) | % metabolic stability predicted using hepatic microsomes, Human [3] | % metabolic stability predicted using hepatic microsomes, Mouse [3] | % metabolic stability predicted using hepatic microsomes, Rat [3]
1 | > 250 °C | O=C1NCN2c3ccc(Cl)cc3[C@H]3CCN4CCC[C@H]1[C@H]4[C@H]32 (racemic) [Example 1, (5aRS,12aSR,12bSR,12cSR)-7-Chloro-2,3,4,5,5a,10,11,12a,12b,12c-decahydro-1H,12H-3a,9b,11-triazabenzo[a]naphtho[2,1,8-cde]azulen-12-one] |  |  |  |  |  |  |  |  |  |  |  |  | 
2 |  | O=C1NC(=O)n2c3c(c4cc(Cl)ccc42)CCN2CCCC1C32 (racemic) [Example 3, (12aRS,12bRS)-7-Chloro-2,3,12a,12b-tetrahydro-4H,4H-3a,9b,11-triazabenzo[a]naphtho[2,1,8-cde]azulene-10,12(5H,11H)-dione] | 55% | 58% | 47% | 48% | 33% | 19% | 5% | 3% |  |  |  |  | 
3 | 255 °C | O=C1NC(=O)N2c3ccccc3[C@H]3CCN4CCC[C@H]1[C@H]4[C@H]32 (racemic) [Example 4, (5aRS,12aSR,12bSR,12cSR)-2,3,5a,12a,12b,12c-Hexahydro-1H,4H-3a,9b,11-triazabenzo[a]naphtho[2,1,8-cde]azulene-10,12(5H,11H)-dione] | 88% | 78% | 70% | 58% | 27% | 14% | 9% | 3% |  |  |  |  | 
4 |  | O=C1NC(=O)n2c3c(c4ccccc42)CCN2CCCC1C32 (racemic) [Example 7, (12aRS,12bRS)-2,3,12a,12b-Tetrahydro-1H,4H-3a,9b,11-triazabenzo[a]naphtho[2,1,8-cde]azulene-10,12(5H,11H)-dione] | 63% | 67% | 48% | 47% | 43% | 23% | 7% | 6% | 96% | 34% |  |  | 
5 |  | O=C1NC(=O)N2c3ccccc3C3CCN4CCCC1C4C32 (single isomer, unassigned) [Example 5, (5aS,12aR,12bR,12cR)— or (5aR,12aS,12bS,12cS)-2,3,5a,12a,12b,12c-Hexahydro-1H,4H-3a,9b,11-triazabenzo[a]naphtho[2,1,8-cde]azulene-10,12(5H,11H)-dione (enantiomer α)] |  |  |  |  |  |  |  |  |  |  | 75% | 100% | 90%
6 |  | O=C1NC(=O)N2c3ccccc3C3CCN4CCCC1C4C32 (single isomer, unassigned) [Example 6, (5aS,12aR,12bR,12cR)— or (5aR,12aS,12bS,12cS)-2,3,5a,12a,12b,12c-Hexahydro-1H,4H-3a,9b,11-triazabenzo[a]naphtho[2,1,8-cde]azulene-10,12(5H,11H)-dione (enantiomer β)] |  |  |  |  |  |  |  |  |  |  | 71% | 100% | 76%
7 |  | (5aRS,12aSR,12bSR,12cSR)-7-Chloro-2,3,5a,12a,12b,12c-hexahydro-1H,4H-3a,9b,1′-triazabenzo[a]naphtho[2,1,8-cde]azulene-10,12(5H,11H)-dione [Example 2] | 53% | 54% | 46% | 35% | 25% | 14% | 5% | 3% |  |  |  |  | 
